Results from ChEMBL document CHEMBL1201862, “PubChem BioAssay data set” (2004).
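Where inhibition never reached the appropriate level, the endpoint shown equals the highest concentration tested. Otherwise, values were interpolated linearly from a five-concentration, 48-hour dose response in 96-well plates. GI50 marks 50% less growth.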 Calls of active or inactive are those of the source. Cut-off read from the data, not from the text of the source: active = GI50 up to about 1.1 µM and inactive = higher.

How the values were obtained:
Assay in all cases: growth of human tumour cells (NCI), 48 h
[1] = system: K562
[2] = system: MOLT-4
[3] = system: U-251
[4] = system: ACHN
[5] = system: DU-145
[6] = system: BT-549
[7] = system: MDA-N
[8] = system: RXF 393
[9] = system: HT-29
[10] = system: MDA-MB-231
[11] = system: SK-OV-3
[12] = system: TK-10
[13] = system: CAKI-1
[14] = system: EKVX
[15] = system: UACC-257
[16] = system: MDA-MB-435
[17] = system: HCC 2998
[18] = system: HOP-62
[19] = system: A549

Measured: GI50

O=C(c1cccs1)N(C(=O)N1CCCCC1)c1ccccc1
inactive: [1] > 100 µM | [2] > 100 µM | [3] > 100 µM | [4] > 100 µM | [5] > 100 µM | [6] > 100 µM | [7] > 100 µM | [8] 35 µM | [9] > 100 µM | [10] > 100 µM | [11] > 100 µM | [12] > 100 µM | [13] > 100 µM | [14] 14.8 µM | [15] > 100 µM | [16] > 100 µM

O=C(Cn1c2c(c3ccccc31)CCCC2)N1CCCCC1
inactive: [2] > 100 µM | [4] > 100 µM | [6] > 100 µM | [7] > 100 µM | [17] > 100 µM | [9] > 100 µM | [11] > 100 µM | [18] > 100 µM | [12] > 100 µM | [13] > 100 µM | [14] > 100 µM | [19] > 100 µM | [15] > 100 µM | [16] > 100 µM

CN(Cc1cc(Cl)cc(Cl)c1O)Cc1c(O)ccc2ccccc12
inactive: [1] 26 µM | [2] 20.9 µM | [3] 16.3 µM | [4] 17.3 µM | [5] 22.3 µM | [6] 17 µM | [7] 24.9 µM | [8] 13.5 µM | [9] 27.9 µM | [10] 16.9 µM | [11] 18.2 µM | [18] 18.1 µM | [12] 17.1 µM | [13] 18.3 µM | [14] 20 µM | [19] 26 µM | [15] 18.2 µM | [16] 19.1 µM

Cc1cn(C2CC(O)C(Cn3nncc3Cn3ncc(=O)[nH]c3=O)O2)c(=O)[nH]c1=O (stereo unspecified)
inactive: [2] > 100 µM | [3] > 100 µM | [4] > 100 µM | [5] > 100 µM | [6] > 100 µM | [7] > 100 µM | [8] > 100 µM | [17] > 100 µM | [10] > 100 µM | [11] 77.1 µM | [18] > 100 µM | [12] > 100 µM | [13] > 100 µM | [14] > 100 µM | [19] > 100 µM | [15] > 100 µM | [16] > 100 µM

CC1CN=C(NCc2ccccc2)S1 (stereo unspecified)
inactive: [1] 48.2 µM | [2] > 100 µM | [3] > 100 µM | [4] > 100 µM | [5] > 100 µM | [6] > 100 µM | [7] 28.4 µM | [8] 4.17 µM | [17] > 100 µM | [9] > 100 µM | [10] > 100 µM | [11] > 100 µM | [18] > 100 µM | [12] > 100 µM | [14] > 100 µM | [15] > 100 µM | [16] 39.1 µM

O=C(c1cccnc1)N1N=C(c2ccc3c(c2)OCO3)CC1(O)c1cc(F)c(Cl)cc1Cl (stereo unspecified)
inactive: [1] 27.9 µM | [2] 15.3 µM | [3] 16.7 µM | [4] 17.7 µM | [5] 20.9 µM | [6] 20.9 µM | [7] 29.3 µM | [8] 12.7 µM | [9] 17.7 µM | [10] 17.3 µM | [11] 27.9 µM | [18] 18 µM | [12] 39.1 µM | [13] 28.6 µM | [14] 20.5 µM | [19] 28.6 µM | [15] 21.1 µM | [16] 27 µM

CC(=O)Nc1ccc2nc(N)n[n+]([O-])c2c1
inactive: [1] > 100 µM | [2] > 100 µM | [3] > 100 µM | [4] > 100 µM | [5] > 100 µM | [6] > 100 µM | [7] > 100 µM | [9] > 100 µM | [10] > 100 µM | [11] > 100 µM | [18] > 100 µM | [12] 77.8 µM | [13] > 100 µM | [14] > 100 µM | [19] > 100 µM | [15] > 100 µM | [16] > 100 µM

COC(C/C=C\C=C\CC/C=C/CC(C)/C=C/C(=C\C(=O)O)CC(=O)O)/C(C)=C\C=C(/C)C(=O)O (stereo unspecified)
inactive: [2] > 100 µM | [3] > 100 µM | [5] > 100 µM | [6] > 100 µM | [7] > 100 µM | [17] > 100 µM | [9] > 100 µM | [10] > 100 µM | [11] > 100 µM | [18] > 100 µM | [12] > 100 µM | [13] > 100 µM | [14] 28.4 µM | [19] > 100 µM | [15] > 100 µM | [16] > 100 µM

CC(C)(C)C(=O)C(N)C(=O)C(C)(C)C
inactive: [1] > 100 µM | [2] 9.57 µM | [3] > 100 µM | [4] > 100 µM | [5] > 100 µM | [6] > 100 µM | [7] > 100 µM | [8] > 100 µM | [17] > 100 µM | [10] > 100 µM | [11] > 100 µM | [18] > 100 µM | [12] > 100 µM | [13] > 100 µM | [19] > 100 µM | [15] > 100 µM | [16] > 100 µM

O=C(Nn1c(-c2ccccc2)nc2ccccc2c1=O)c1cccc([N+](=O)[O-])c1
inactive: [1] > 100 µM | [2] 39.9 µM | [3] 62.4 µM | [4] 86.7 µM | [5] > 100 µM | [6] 32.3 µM | [7] > 100 µM | [8] > 100 µM | [17] > 100 µM | [9] 79.8 µM | [11] > 100 µM | [18] > 100 µM | [12] 91.8 µM | [14] 57.9 µM | [19] 44.4 µM | [15] > 100 µM | [16] > 100 µM

Cc1cc(Nc2ccc(/N=N/c3ccc(O)c4ncccc34)cc2)nc(C)n1
inactive: [1] 3.78 µM | [2] 3.93 µM | [3] 8.13 µM | [4] 8.22 µM | [5] 18.2 µM | [6] 16.4 µM | [7] 6.62 µM | [8] 12.7 µM | [9] 31.2 µM | [10] 24.9 µM | [11] 23.9 µM | [18] 15.9 µM | [12] 17.9 µM | [13] 25.7 µM | [14] 34.8 µM | [19] 9.82 µM | [15] 16.6 µM | [16] 9.29 µM

CC1CC[C@@]2(OC1)OC1C[C@H]3[C@@H]4CC=C5CC(OC6OC(CO)C(OC7OC(CO)C(O)C(OC8OCC(O)C(O)C8O)C7OC7OC(CO)C(O)C(O)C7O)C(O)C6O)CCC5(C)[C@H]4CCC3(C)C1[C@@H]2C (stereo partly specified)
inactive: [1] 7.23 µM | [2] 9.18 µM | [3] 4.68 µM | [4] 4.97 µM | [5] 4.86 µM | [6] 4.38 µM | [8] 4.76 µM | [17] 4.68 µM | [9] 5.08 µM | [10] 4.66 µM | [11] 6.55 µM | [18] 4.09 µM | [12] 7.43 µM | [13] 4.95 µM | [14] 4.67 µM | [19] 4.38 µM | [15] 6.47 µM | [16] 5.78 µM

COc1cc(/C=C2\N=C(c3ccccc3)N(/N=C/c3cc4cc(C)ccc4nc3Cl)C2=O)cc(OC)c1OC
inactive: [1] 35 µM | [2] 20.6 µM | [3] 18.9 µM | [4] 34.2 µM | [5] 30.4 µM | [6] 52.2 µM | [7] 21 µM | [17] 18.8 µM | [9] 38.4 µM | [10] 23.1 µM | [11] 59.8 µM | [18] 58.7 µM | [12] 37.8 µM | [13] 61.7 µM | [14] 54.5 µM | [19] 36.4 µM | [15] 46.5 µM | [16] 15.8 µM

c1ccc2c(c1)nnn2CN1CCOCC1
inactive: [1] 45 µM | [2] 35.6 µM | [3] > 100 µM | [4] > 100 µM | [6] > 100 µM | [7] 71.6 µM | [8] 48.5 µM | [9] > 100 µM | [10] > 100 µM | [18] > 100 µM | [12] > 100 µM | [13] 75.7 µM | [14] > 100 µM | [19] > 100 µM | [15] > 100 µM | [16] > 100 µM

CC1ON2CCCC2[C@H]1C(=O)N1C2CC3CCC2(CS1(=O)=O)C3(C)C (stereo partly specified)
inactive: [1] > 100 µM | [2] > 100 µM | [3] > 100 µM | [4] > 100 µM | [5] > 100 µM | [6] > 100 µM | [7] > 100 µM | [8] > 100 µM | [9] > 100 µM | [10] > 100 µM | [11] > 100 µM | [18] > 100 µM | [12] > 100 µM | [13] > 100 µM | [14] > 100 µM | [19] > 100 µM | [15] > 100 µM | [16] > 100 µM

[O-][S+](Nc1ccccc1)c1ccc(-c2ccccc2)cc1 (stereo unspecified)
inactive: [1] > 100 µM | [2] > 100 µM | [3] > 100 µM | [4] > 100 µM | [5] > 100 µM | [6] 8.57 µM | [7] > 100 µM | [17] > 100 µM | [9] > 100 µM | [10] > 100 µM | [18] > 100 µM | [12] > 100 µM | [14] > 100 µM | [19] > 100 µM | [15] > 100 µM | [16] > 100 µM
